Non-standard residues stand in square brackets, D forms with d. Nle = CCCC[C@H](N)C(=O)O

What is called IC50 is the concentration that gives 50% inhibition. The low end stands for greater potency in that assay, the high end for weaker potency in that assay.

T1 sequence (P32245 whole entry): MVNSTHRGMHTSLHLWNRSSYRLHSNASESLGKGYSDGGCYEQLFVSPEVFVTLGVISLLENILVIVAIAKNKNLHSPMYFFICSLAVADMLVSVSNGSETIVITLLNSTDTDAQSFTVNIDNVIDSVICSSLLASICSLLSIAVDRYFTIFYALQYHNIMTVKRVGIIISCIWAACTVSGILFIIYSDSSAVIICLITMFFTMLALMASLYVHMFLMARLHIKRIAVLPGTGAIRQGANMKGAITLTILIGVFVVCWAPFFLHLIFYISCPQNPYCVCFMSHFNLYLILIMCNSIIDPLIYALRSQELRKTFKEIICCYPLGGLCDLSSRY

The first assay has as its system MC4R as compared to the MC3R.
Experiment: not given
As to conditions: Nijenhuis et al. 2003; Sutton et al. 2008; cited from earlier work.
Turning to “Ac-Nle-Gly-Lys-D-NaI(2)-Arg-Trp-Gly-NH(2)”, the “selectivity for the MC4R as compared to the MC3R (MC4R/MC3R)” value is listed as 34 fold.

As for “Ac-Nle-Gly-Lys-D-Phe-Arg-Trp-Gly-NH(2) (Ac-[Nle]GK[dF]RWG-NH2; SMILES CCCC[C@H](NC(C)=O)C(=O)NCC(=O)N[C@@H](CCCCN)C(=O)N[C@H](Cc1ccccc1)C(=O)N[C@@H](CCCNC(=N)N)C(=O)N[C@@H](Cc1c[nH]c2ccccc12)C(=O)NCC(N)=O)”, the “selectivity for the MC4R as compared to the MC3R (MC4R/MC3R)” value is 90 fold.

Another assay has as its target T1, wild-type human melanocortin 4 receptor (WT-hMC4R) (Homo sapiens, UniProt P32245).
T1 construct: expressed in transfected cells
Description: Cyclic AMP assay (HTRF), antagonist competition against NDP-α-MSH. It counts as cell-based. The following applies: HEK293T cells stably expressing WT-hMC4R; inhibition of response to 4 nM NDP-α-MSH; cAMP. As for the experimental part: The general procedures described above were used to prepare the examples described below. Reported HPLC retention time are for reverse-phase HPLC (Agilent, 1200 series) using the conditions reported above (See “General” section). Mass spectra were recorded on a 6210 G1969A LC/MSD TOF spectrometer from Agilent Technologies using the LC conditions reported above (See “General” section). IC50 values were obtained using the cAMP assay described below.
IC50 value is the half maximal concentration of the tested compound to inhibit half of the maximal response of the agonist NDP-α-MSH. It is a measurement of the antagonist compound potency.
Intracellular cyclic 3′-5′ adenosine monophosphate (cAMP) accumulation was measured using a competitive immunoassay based on HTRF (Homogeneous Time-Resolved Fluorescence) technology (cAMP dynamic-2, Cis-Bio).
HEK293T stable cell line expressing double-tagged WT-hMC4R construct were collected and washed in cAMP buffer (1×D-PBS pH 7.4, 0.1% glucose). 40,000 cells/well were then dispensed in 96-well plates in cAMP buffer [1×D-PBS, 1% BSA, 0.1% Glucose, 0.75 mM 3-isobutyl-1-methyl-xanthine (IBMX, Sigma)] and incubated either for antagonist competition assay: 1 hour at 37° C. with various concentrations of compound [0.01 nM-10 μM] followed by 30 min incubation at 37° C. with 4 nM of NDP-α-MSH (Sigma) or for agonist assay: 1 hour at 37° C. with various concentrations of compound [0.01 nM-10 μM]. 10,000 cells were transferred in 384-well plates, lysed and incubated with cAMP labeled with the dye d2 and anti-cAMP M-Antidody labeled with Cryptate following the manufacturer's protocol.
Reading of HTRF signal was performed on Artemis TR-FRET plate reader (Cosmo Bio).
All curve fitting was conducted using non-linear regression analyses from PRISM (version 4.0c, GraphPad Inc.) and the determination of Rmax and EC50 or IC50 parameters were obtained from sigmoidal dose-response phase (variable slope) equation.
A cDNA encoding a wild-type human MC4R with a 3 tandem copies of Hemaglutinine (HA) epitote sequence from UMR cDNA resource center was modified using known techniques in the art (e.g., PCR, cloning) to fused in frame at the C-terminal a venus-Yellow Fluorescent Protein (YFP) cDNA.
The resultant cDNA was then subcloned in eukaryotic expression vector, e.g. pcDNA 3.1(+) (Invitrogen).
The double tagged WT-hMC4R was transfected in HEK293T cells with lipofectamine (Invitrogen) following the manufacturer's instructions and permanently transfected clonal cell lines were selected by resistance to the neomycin analog G418.
HEK293T stable cell line expressing wild-type human melanocortin 4 receptor (WT-hMC4R) containing an N-terminal 3×HA epitope tag and an intracellular C-terminal venus-yellow fluorescent protein (v-YFP) were maintained at 37° C. in humidified air containing 5% CO2 in Dulbecoo's modified Eagle's medium (DMEM) supplemented with 10% fetal bovine serum (FBS), 100 U/ml penicillin/streptomycin (DMEM complete/10% FBS). Cells were generally at 70%-80% confluence on the day of assay.
(Time-resolved FRET reads energy transfer from a long-lived donor to a nearby acceptor.)
The molecule `COc1ccc(-c2nc3cnc(C(=O)N(CCC(C)C)CCC(C)C)nc3n2CCCN2CCCCC2)cc1` [Cpd 54] gave an IC50 of 0.1 to 1 µM.

`CCCCN(CCCC)C(=O)c1ccc(Nc2nc3ccc(C(=O)N(CCCC)CCCC)nc3n2CCCN2CCCCC2)cc1` [Cpd 55]: the IC50 lay within 0.1 to 1 µM.

Regarding `CCCCN(CCCC)C(=O)c1ccc2nc(Nc3ccc(C(=O)N(C)C)cc3)n(CCCN3CCCCC3)c2n1` [Cpd 56], the IC50 lay within 0.1 to 1 µM.

Consider `CCCCN(CCCC)C(=O)c1ccc2nc(Nc3ccc(C(=O)N4CCCCC4)cc3)n(CCCN3CCCCC3)c2n1` [Cpd 57], for which the IC50 lay within 0.1 to 1 µM.

The molecule `CCCCN(CCCC)C(=O)c1ccc2nc(Nc3ccc(C(=O)N4CCN(C)CC4)cc3)n(CCCN3CCCCC3)c2n1` [Cpd 58] displayed an IC50 of 0.1 to 1 µM.

Molecule `CCCCN(CCCC)C(=O)c1ccc2nc(Nc3ccc(C(=O)N4CCOCC4)cc3)n(CCCN3CCCCC3)c2n1` [Cpd 59] displayed an IC50 of 0.1 to 1 µM.

As to `CCCCN(CCCC)C(=O)c1cc2c(cn1)nc(-c1ccc(OC)cc1)n2CCCN1CCCCC1` [Cpd 60], the IC50 lay in the range of 1 to 15 µM.

As to `CCCCN(CCCC)C(=O)c1ccc2nc(SCC)n(CCCN3CCCCC3)c2n1` [Cpd 61], the IC50 was 1 to 15 µM.

`CCCCN(CCCC)C(=O)c1ccc2nc(Oc3ccc(OC)cc3)n(CCCN3CCCCC3)c2n1` [Cpd 62] had an IC50 of 0.1 to 1 µM.

For the molecule `COc1ccc(-c2nc3cnc(C(=O)N(CCC(C)C)CCC(C)C)cc3n2CCCN2CCCCC2)cc1` [Cpd 63], the IC50 fell in the range of 0.1 to 1 µM.

Molecule `COc1ccc(Br)cc1-c1nc2cnc(C(=O)N(CCC(C)C)CCC(C)C)cc2n1CCCN1CCCCC1` [Cpd 64] registered an IC50 of 1 to 15 µM.

As to `CC(C)CCN(CCC(C)C)C(=O)c1cc2c(cn1)nc(-c1cc3ccccc3s1)n2CCCN1CCCCC1` [Cpd 65], the IC50 is less than 0.1 µM.

`CCCCN(CCCC)C(=O)c1cc2c(cn1)nc(Oc1ccc(OC)cc1)n2CCCN1CCCCC1` [Cpd 66] displayed an IC50 of 0.1 to 1 µM.

In turn, `CCCCN(CCCC)C(=O)c1ccc2nc(Nc3ccc(C(=O)O)cc3)n(CCCN3CCCCC3)c2n1` [Cpd 67] showed a half-maximal inhibitory concentration (IC50) of 1 to 15 µM.

In the case of `CC(=O)c1ccc(Nc2nc3ccc(C(=O)N(CCC(C)C)CCC(C)C)nc3n2CCCN2CCCCC2)cc1` [Cpd 68], the 50% inhibitory concentration (IC50) was less than 0.1 µM.

On to `CC(C)CCN(CCC(C)C)C(=O)c1ccc2nc(Nc3ccc(C(C)O)cc3)n(CCCN3CCCCC3)c2n1` (centres unmarked) [Cpd 69], for which the IC50 was less than 0.1 µM.

`CC(C)CCN(CCC(C)C)C(=O)c1ccc2nc(Nc3ccc(C(C)(C)O)cc3)n(CCCN3CCCCC3)c2n1` [Cpd 70] came in with an IC50 of less than 0.1 µM.

Take `COC(=O)c1ccc(Nc2nc3ccc(C(=O)N(CCC(C)C)CCC(C)C)nc3n2CCCN2CCCCC2)cc1` [Cpd 71]: the IC50 was less than 0.1 µM.

`COc1ccc(-c2nc3ccc(C(=O)N(CCC(C)C)CCC(C)C)nc3n2CCCN2CCCCC2)cc1` [Cpd 72] displayed an IC50 of 0.1 to 1 µM.

Take `CC(C)CCN(CCC(C)C)C(=O)c1ccc2nc(-c3ccc4c(c3)OCO4)n(CCCN3CCCCC3)c2n1` [Cpd 73]: the 50% inhibitory concentration (IC50) was in the range of 0.1 to 1 µM.

With `COc1ccc(Nc2nc3ccc(C(=O)N(CCC(C)C)CCC(C)C)nc3n2CCCN2CCOCC2)cc1` [Cpd 74], the IC50 is 0.1 to 1 µM.

Molecule `CC(C)CCN(CCC(C)C)C(=O)c1ccc2nc(Nc3cccnc3)n(CCCN3CCOCC3)c2n1` [Cpd 75] returned an IC50 of 0.1 to 1 µM.

`CC(C)CCN(CCC(C)C)C(=O)c1ccc2nc(NCc3ccc4c(c3)OCO4)n(CCCN3CCOCC3)c2n1` [Cpd 76] displayed an IC50 of 0.1 to 1 µM.

Molecule `COc1ccc(-c2nc3ccc(C(=O)N(CCC(C)C)CCC(C)C)nc3n2CCCN2CCOCC2)cc1` [Cpd 77] came in with an IC50 of 1 to 15 µM.

`CC(=O)N1CCC(c2nc3ccc(C(=O)N(CCC(C)C)CCC(C)C)nc3n2CCCN2CCOCC2)CC1` [Cpd 78] had an IC50 of 1 to 15 µM.

The subject of the next assay is MC4R as compared to the MC5R.
Experiment: not given
The following applies: Nijenhuis et al. Peptides 2003; cited from earlier work.
For “Ac-Nle-Gly-Lys-D-NaI(2)-Arg-Trp-Gly-NH(2)”, the “selectivity for the MC4R as compared to the MC5R (MC4R/MC5R)” value is 109 fold.

As for “Ac-Nle-Gly-Lys-D-Phe-Arg-Trp-Gly-NH(2) (Ac-[Nle]GK[dF]RWG-NH2; SMILES CCCC[C@H](NC(C)=O)C(=O)NCC(=O)N[C@@H](CCCCN)C(=O)N[C@H](Cc1ccccc1)C(=O)N[C@@H](CCCNC(=N)N)C(=O)N[C@@H](Cc1c[nH]c2ccccc12)C(=O)NCC(N)=O)”, the “selectivity for the MC4R as compared to the MC5R (MC4R/MC5R)” value is 110 fold.
